Where a SMILES comes first, the peptide text is derived from it. [ ]: non-standard residue; d: D form. The star is where a group is joined. Dolaproine = CO[C@@H]([C@@H]1CCCN1)[C@@H](C)C(=O)O; Dil = CC[C@H](C)[C@H](NC)[C@@H](CC(=O)O)OC; X1 = C[C@@H](N*)[C@@H](O)c1ccccc1; NMeV = CN[C@H](C(=O)O)C(C)C
Assays:
[1] = Phase 1 dose-escalation study of PSMA ADC: pharmacokinetics (ELISA, LC/MS/MS); assay type: in vivo, human
Text: An open-label, dose-escalation phase 1 study of PSMA ADC (comprising MMAE) in patients with taxane refractory metastatic prostate cancer (metCRPC) was initiated. The objectives of the study were to (1) determine a maximum tolerated dose (MTD) for PSMA ADC administered once every 3 weeks; (2) assess the safety, tolerability, pharmacokinetics (PK) and pharmacodynamics (PD) of PSMA ADC across the dose-escalation range; (3) assess immunogenicity; and (4) assess antitumor activity. PSMA ADC in saline was administered by IV infusion Q3 W for up to 4 cycles. Subjects received either 0.4 mg/kg, 0.7 mg/kg, 1.1 mg/kg, or 1.8 mg/kg or will receive 2.0 mg/kg (at weeks 1, 4, 7 and 10).
Adverse events, PK, PSA, circulating tumor cells, clinical disease progression and immunogenic response to PSMA ADC continued to be assessed (FIGS. 19-21). Serum concentrations of PSMA ADC and total antibody were measured by an enzyme-linked immunosorbent assay (ELISA) method, and free MMAE was measured by liquid chromatography/mass spectrometry/mass spectrometry (LC/MS/MS) method. Individual patients report bone pain reduction as described below.

C4-2 cells [2] = experiment: Single C4-2 xenograft mouse given docetaxel, then switched to PSMA ADC after relapse; assay type: in vivo, nude mouse
Procedure: The in vivo therapeutic efficacy of PSMA ADC in a subcutaneous xenograft model of human prostate cancer was assessed. […] C4-2 is an androgen-independent human prostate cancer cell line. At day 11, the tumor size of each mouse was measured, by length and width in millimeters, using a caliper (Mitutoyo, Aurora, Ill.). The tumor volume was calculated using the following formula: Volume(mm^3)=[(Length)×(Width)^2]/2
It was given 12 doses of docetaxel, IP, at 12 mg/kg weekly. As shown in FIG. 3 and Table 2, the animal initially responded to the docetaxel treatment, the tumor volume was reduced to ˜300 mm^3 at day 60, but then it progressed to ˜800 mm^3 at day 100. The treatment of docetaxel was stopped, and PSMA ADC was given IV at 6 mg/kg for an additional 12 doses, weekly. […] PSMA ADC can treat tumors that fail docetaxel treatment.

C4-2 cells [3] = experiment: C4-2 xenograft, PSMA ADC after docetaxel treatment failure (Example 3); assay type: in vivo, athymic nude mice
Procedure: An experiment (FIG. 10) was designed to evaluate PSMA ADC effectiveness after docetaxel treatment failure. […] At day 14, animals having a tumor volume between 100-200 mm^3 were randomized (randomization #1) into two treatment arms: (1) vehicle control (PBS buffer, n=10); (2) docetaxel at 2 mg/kg/IV weekly (n=50) according to tumor volume. The mean tumor volume was 138.0 and 138.1 mm^3 for the vehicle control and docetaxel treatment groups, respectively, at randomization.
All animals then received intravenous injections of PBS or docetaxel (Sigma, St. Louis, Mo.) at 2 mg/kg via tail vein in a volume of 0.1 mL. Tumor sizes were measured twice per week after tumor implantation, and the average tumor volume for the two groups before the second randomization was initiated were plotted (FIG. 11).
Animals were randomized into these two treatment subgroups continuously over the period of 28 days to 70 days post tumor implantation. By the end of day 70, there were 28 mice whose tumor volume had exceeded 400 mm^3, with 14 mice randomized into the PSMA ADC treatment subgroup (mean tumor volume of 695 mm^3 and 14 mice randomized into the continued docetaxel treatment subgroup (mean tumor volume of 642 mm^3 with a p-value of 0.28 (student t-test)).
The effect of PSMA ADC treatment on tumor growth after docetaxel failure was assessed by comparing tumor reduction after the second randomization. […]

C4-2 cells [4] = test system: C4-2 cells
Procedure: Male athymic nude mice, 6-8 weeks old, obtained from Charles River Laboratories, Inc., were implanted with Matrigel subcutaneously into the right flank of each mouse with 5 million C4-2 cells (androgen-independent human prostate cancer cell line). At day 14, tumor size was measured by length and width in mm (millimeter). The volume was calculated using the formula: volume (mm^3)=[(length)×(width)^2]/2. […] Animals were dosed weekly through the tail vein.
When the tumor volume of an animal in the docetaxel treatment group exceeded 400 mm^3, this animal was randomized, at a 1:1 ratio, into one of the two treatment subgroups: one group continued to receive docetaxel at 2 mg/kg weekly (n=18), and the second group was switched to PSMA ADC treatment at 6 mg/kg/IV weekly (n=18). Mice whose tumors durably responded to docetaxel (≦400 mm^3) continued to receive docetaxel at 2 mg/kg/IV weekly. Treatment effects were assessed by measuring tumor volume and overall survival. Animal body weight was also measured. Animals with tumor size ≧2000 mm^3 were sacrificed.

[5] = test system: hormone-refractory prostate cancer; conditions: cited from earlier work

| SMILES | exposure to free MMAE versus dose ([1]; after IV PSMA ADC 0.4-1.8 mg/kg) | exposure to free MMAE relative to PSMA ADC ([1]; after IV PSMA ADC, serum, LC/MS/MS) | tumor volume (C4-2 cells [2]; day 60, docetaxel IP 12 mg/kg weekly, start ~500 mm^3 at day 21) | tumor volume (C4-2 cells [2]; day 100, progressed on docetaxel IP 12 mg/kg weekly) | tumor volume course after second randomization (docetaxel failure, >400 mm^3) (C4-2 cells [3]; PSMA ADC 6 mg/kg IV weekly or continued docetaxel 2 mg/kg) | tumor growth compared to vehicle control (C4-2 cells [3]; docetaxel 2 mg/kg IV weekly, n=50, before second randomization, by day 21 p=0.025) | tumor size of individual animals after second randomization (C4-2 cells [4]; PSMA ADC (panel A) or continued docetaxel (panel B)) | average body weight change post second randomization (C4-2 cells [4]; PSMA ADC versus continued docetaxel, p<0.001) | median survival post second randomization (C4-2 cells [4]; continued docetaxel 2 mg/kg weekly, n=18) | animals sacrificed due to large tumors (>2,000 mm^3) (C4-2 cells [4]; continued docetaxel treatment group, day 157 post second randomization) | increase in survival ([5]; docetaxel (Taxotere) in combination with prednisone, advanced prostate cancer) | survival benefit ([5]; docetaxel in combination with prednisone) |
| --- | --- | --- | --- | --- | --- | --- | --- | --- | --- | --- | --- | --- |
| CC[C@H](C)[C@@H]([C@@H](CC(=O)N1CCC[C@H]1[C@H](OC)[C@@H](C)C(=O)N[C@H](C)[C@@H](O)c1ccccc1)OC)N(C)C(=O)[C@@H](NC(=O)[C@@H](NC)C(C)C)C(C)C [MMAE, monomethylauristatin norephedrine] (H-[NMeV]V[Dil][Dolaproine]-X1) | dose proportional | < 0.1% | – | – | – | – | – | – | – | – | – | – |
| CC(=O)O[C@@]12CO[C@@H]1C[C@H](O)[C@@]1(C)C(=O)[C@H](O)C3=C(C)[C@@H](OC(=O)[C@H](O)[C@@H](NC(=O)OC(C)(C)C)c4ccccc4)C[C@@](O)([C@@H](OC(=O)c4ccccc4)[C@H]21)C3(C)C [docetaxel] | – | – | ~300 mm^3 | ~800 mm^3 | grew continuously | reduced tumor growth compared to control | tumors continued to progress except in one animal | lost weight | 45 days | 16 of 18 | 2-3 months | 2.4 month |
